In patent US12139461B1, “Piperidine compounds as PDE5 inhibitors” (KING SAUD UNIVERSITY, priority 2024, dated 2024):
“And” between values parts separate entries of the source, which are not always exact repeats. Equal entries are not always repeated.

Tests used:
[1] = target: Phosphodiesterase type 5 (PDE5) (Homo sapiens (Human), UniProt O76074); assay: In vitro phosphodiesterase type 5 (PDE5) inhibition assay; assay type: biochemical; details: purified PDE5, IMAP FP assay
[2] = tested on: sexually experienced male rats; assay: Penile erection index (noncontact erection test); assay type: in vivo, rat; details: Rattus norvegicus, oral, linear regression of proportion of responding rats, read-out: effective dose ED50 (dose required to give 50% responding rats)
Protocol: The penile erection index is an established means of determining the erection promoting properties of a substance. Determination of penile erection in a noncontact position was calculated as reported previously (Haripriya V M. et al., Andrologia 51 (2019) e13180; Sharma V. et al., J Ethnopharmacol 143 (2012) 201-206, the contents of each of which are hereby incorporated by reference in their entirety). The sexually experienced male rats of all groups were given the treatment 30 minutes before experimentation. The number of animals for each dose was ten rats in each experiment. […] The results shown are the average of three separate experiments. Control animals were given 0.5% CMC as a vehicle.
The rats of each group were placed in the observation cages (five at a time) divided into half by two sheets of metal mesh, preventing contact but allowing auditory, visual and olfactory stimuli. After a 5-min adaptation period, the test was started by placing an estrus female on the other side of the cage. Penile erection was recorded when the rats bent down to lick their erect penis. Homosexual mounting was also counted when a male rat mounted another male rat performing pelvic thrusts with or without a penile erection. […] The effective dose ED50 (the dose required to give 50% responding rats) for examined compounds was calculated using linear regression analysis by GraphPad software with the proportion of responding rats as the input data and expressed as μmol/kg.

[3] = tested on: male rats; assay: Copulatory behavior testing; assay type: in vivo, rat; details: 5 mg/kg oral; for mean intromission interval (MII): MII=EL/IF
Protocol: Sexually mature Wistar albino male and female rats weighing 150-180 g (10-14 weeks old) were used in our study. Males were trained for sexual behavior with estrus females, that is, two hours a day for one week, before the investigations. Females were brought into the estrous phase artificially by sequential injection of estradiol benzoate (Sigma) (25 μg/animal) and progesterone (Sigma) (250 μg/animal) subcutaneously, 48 and 4 hours before pairing, respectively. Only those sexually active animals were used subsequently in the study. Sexually active rats were isolated and housed in separate cages at room temperature (24±2° C.) on a reversed day/night cycle with a relative humidity of 50-55% during the experimental period. All sexual studies were performed in a calm laboratory condition under subdued light. For the toxicity study, adult Wistar albino male rats were used separately. Rats were obtained from the Experimental Animal Care Center, College of Pharmacy, King Saud University. Animals were fed with a standard pellet diet and provided water ad libitum. All experiments were performed per the protocols and recommendations of the NIH Guide for the Care and Use of Laboratory Animals and the legal requirements of King Saud University for investigations on humans and animals.
Based on a preliminary study to select the appropriate dose for the promising synthesized compounds, the compounds were administered separately to sexually experienced male rats by oral gavage at 5 mg/kg in a 0.5% sodium carboxymethyl cellulose (CMC) vehicle. […] All solutions were freshly prepared at a concentration that allowed the administration of 1 ml/kg.
After drug treatment, rats were housed separately in transparent cages for acclimation. Thirty minutes after drug treatment, a sexually receptive female rat with estrous phase was introduced in each cage for 30 min and the following parameters of the copulatory behavior were recorded: namely mount latency (ML; time from introduction of the female until the first mount with or without penile insertion, it measures the degree of arousal or sexual interest or libido of the male), mount frequency (MF; the number of mounts until ejaculation, it is a measure of the degree of the male's sexual interest or libido), intromission latency (IL; time from introduction of the female until the first intromission, it measures the degree of sexual excitement and erection), intromission frequency (IF; number of vaginal penetrations until ejaculation, it measures the degree of erection), ejaculation latency (EL; time from the first intromission until ejaculation, it determines the excellent organization of copulation in rats) and post-ejaculatory interval (PEI; time interval between an ejaculation and the following first mount, it measures the refractory period that comes after ejaculation). Latency values represent the number of seconds that elapses from the introduction of the female into the copulatory arena until the male executes the first mount, intromission or ejaculation. Frequency values represent the number of ejaculations, mounts or intromission recorded during the copulatory test.
Depending on these parameters, the following can be calculated: Copulatory efficiency (CE)=(IF/MF)×100 and mean intromission interval (MII)=EL/IF as previously described (Aydogan F. et al., J Ethnopharmacol 257 (2020) 112868; Besong E B. et al., Biochem Res Int 2018 (2018) 2869727, the contents of each of which are hereby incorporated by reference in their entirety). Experiments were repeated blindly three times using new fresh (unused) animals in each experiment.

| SMILES | melting point [°C] | IC50 [1] | ejaculation latency (EL) [3] | intromission frequency (IF) [3] | intromission latency (IL) [3] | mount frequency (MF) [3] | mount latency (ML) [3] [s] | post-ejaculatory interval (PEI) [3] [s] | copulatory efficiency (CE) ([3]; CE=(IF/MF)x100) | mean intromission interval (MII) [3] | also measured |
| --- | --- | --- | --- | --- | --- | --- | --- | --- | --- | --- | --- |
| COc1ccc(S(=O)(=O)N2CCC(c3ccccc3)CC2)c(OC)c1 [Compound C1, 1-((2,4-Dimethoxyphenyl)sulfonyl)-4-phenylpiperidine] | 191 to 193 | 106 ± 2.07 nM |  |  |  |  |  |  |  |  |  |
| COc1ccc(S(=O)(=O)N2CCC(c3ccccc3)CC2)cc1OC [Compound C2, 1-((3,4-Dimethoxyphenyl)sulfonyl)-4-phenylpiperidine] | 207 to 209 | 185 ± 3.61 nM |  |  |  |  |  |  |  |  |  |
| COc1ccccc1S(=O)(=O)N1CCC(c2ccccc2)CC1 [Compound C3, 1-((2-Methoxyphenyl)sulfonyl)-4-phenylpiperidine] | 173 to 175 | 85.2 ± 1.66 nM |  |  |  |  |  |  |  |  |  |
| Cc1cc(C)c(S(=O)(=O)N2CCC(c3ccccc3)CC2)c(C)c1 [Compound C6, 1-(Mesitylsulfonyl)-4-phenylpiperidine] | 157 to 159 | 296 ± 5.77 nM |  |  |  |  |  |  |  |  |  |
| O=S(=O)(c1ccc(Cl)c(Cl)c1)N1CCC(c2ccccc2)CC1 [Compound C11, 1-((3,4-Dichlorophenyl)sulfonyl)-4-phenylpiperidine] | 217 to 219 | 56.7 nM and 56.8 nM | 318.1 s | 8.3 | 205.5 s | 17.1 | 94.6 | 393.5 | 48.5% | 39.6 | ED50 [2]: 12.7 µmol/kg; efficacy in improving copulatory behavior [3]: more pronounced |
| COc1ccc(NC(=O)CN2CCC(Cc3ccccc3)CC2)cc1 [Compound C15, 2-(4-Benzylpiperidin-1-yl)-N-(4-methoxyphenyl)acetamide] | 61 to 63 | 184 ± 3.6 nM |  |  |  |  |  |  |  |  |  |
| O=C(CN1CCC(Cc2ccccc2)CC1)NCc1ccc(F)cc1 [Compound C16, 2-(4-Benzylpiperidin-1-yl)-N-(4-fluorobenzyl)acetamide] | 72 to 74 | 484 ± 9.44 nM |  |  |  |  |  |  |  |  |  |
| O=S(=O)(c1ccc(Cl)c(Cl)c1)N1CCC(Cc2ccccc2)CC1 [Compound C19, 4-Benzyl-1-((3,4-dichlorophenyl)sulfonyl)piperidine] | 166 to 168 | 102 ± 1.99 nM |  |  |  |  |  |  |  |  |  |
| COc1ccc(S(=O)(=O)N2CCC(Cc3ccccc3)CC2)cc1OC [Compound C20] |  | 63.3 nM | prolonged | 7.6 | 229.1 s | 16.0 | 95.5 | 401.8 | did not alter | did not alter | ML, IL, IF, MF and EL compared to untreated controls [3]: not significantly different; copulatory efficiency (CE) ([3]; CE=(IF/MF)x100, listed as C 20): 48.5%; mean intromission interval (MII) ([3]; listed as C 20): 44.7; ejaculation latency (EL) ([3]; listed as C 20): 325.1 s |
| COc1ccccc1S(=O)(=O)N1CCC(Cc2ccccc2)CC1 [Compound C23, 4-Benzyl-1-((2-methoxyphenyl)sulfonyl)piperidine] | 95 to 97 | 207 ± 4.03 nM |  |  |  |  |  |  |  |  |  |
| COc1ccc(S(=O)(=O)N2CCC(Cc3ccccc3)CC2)c(OC)c1 [Compound C24, 1-((2,4-Dimethoxyphenyl)sulfonyl)-4-Benzylpiperidine] |  | 56.3 nM and 56.4 nM | 377.6 s | 9.3 | 193.8 s | 17.3 | 85.0 | 370.0 | 54.0% | 41.2 | efficacy in improving copulatory behavior [3]: more pronounced |
| Cc1cc(C)c(S(=O)(=O)N2CCC(Cc3ccccc3)CC2)c(C)c1 [Compound C26, 4-Benzyl-1-(mesitylsulfonyl)piperidine] | 70 to 72 | 107 ± 2.09 nM |  |  |  |  |  |  |  |  |  |
| Cc1ccc(S(=O)(=O)N2CCC(Cc3ccccc3)CC2)cc1 [Compound C28] |  | 56.5 nM | 332.8 s | 9.1 | 195.5 s | 17.5 | 94.6 | 393.3 | 52.3% | 36.6 | efficacy in improving copulatory behavior [3]: more pronounced |
| O=C(CN1CCC(Cc2ccccc2)CC1)Nc1ccccc1 [Compound C30] |  | 59 nM | 324.6 s | 6.8 | Weak but significant reductions | 14.8 | 95.5 | 411.8 | did not alter | did not alter | ML, IL, IF, MF and EL compared to untreated controls [3]: not significantly different; copulatory efficiency (CE) ([3]; CE=(IF/MF)x100, listed as C 30): 46.8%; mean intromission interval (MII) ([3]; listed as C 30): 49.2; intromission latency (IL) ([3]; listed as C 30): 215.3 s |
| COc1ccc(CNC(=O)CN2CCC(Cc3ccccc3)CC2)cc1 [Compound C33, 2-(4-Benzylpiperidin-1-yl)-N-(4-methoxybenzyl)acetamide] | 89 to 91 | 99.8 ± 1.94 nM |  |  |  |  |  |  |  |  |  |
| CCCc1nn(C)c2c(=O)[nH]c(-c3cc(S(=O)(=O)N4CCN(C)CC4)ccc3OCC)nc12 [sildenafil, reference compound] |  |  | 426.6 s | 17.8 | 135.1 s | 26.6 | 68.5 | 294.5 |  | 24.3 | ED50 [2]: 8.52 µmol/kg |
